Test results: paper PMC9468151, “Identification of a binding site on soluble RANKL that can be targeted to inhibit soluble RANK-RANKL interactions and treat osteoporosis” (Nature Communications, 2022)
Where “and” joins values, the source holds several entries; their conditions need not be identical. Equal entries are not always repeated. Entries after “also recorded” stand apart in the source; their conditions may differ.

Legend:
RAW264.7 cells = test: In vitro cytotoxicity assay (MTT); assay type: cell-based, mouse; conditions: RAW264.7, MTT
Method: MTT assay was used to determine cell viability. RAW264.7 cells in the logarithmic growth phase were cultured in 96-well plates with 6 × 10^3 cells in each well and incubated for 24 h. The surviving cells were then determined by MTT method. […] Cell growth inhibition ratio was calculated as follows: Cellgrowthinhibitionratio%=ODvehicle−ODtreaed/ODvehicle×100%
Cell cytotoxicity CC50 value were conducted by using Nonlinear regression (curve fit) analytic procedure in GraphPad Prism 8.

[1] = tested on: sRANKL induced osteoclast differentiation; test: In vitro anti-osteoclastogenesis activity determination (TRAP staining); assay type: cell-based, mouse; parameters: key to inhibition of osteoclastogenesis, dose-response (fig. S2a): % inhibition = 100 − (treated−unstimulated)/(untreated−unstimulated)×100; conditions: for inhibition of osteoclastogenesis, dose-response (fig. S2a): three replicate columns; for IC50: read-out: OC IC50 (anti-osteoclastogenesis activity)
Method: Mouse osteoclasts were cultured according to the previously reported protocols. BMMs were plated in 96-well plates at a density of 6 × 10^3 cells/well with complete medium containing 10 ng/mL M-CSF. The following day, cells were then stimulated with 100 ng/mL sRANKL in the presence or absence of compounds with different concentrations every 2 days until osteoclasts formed. In order to calculate IC50, we set 9 concentrations for each compound and untreated and non-sRANKL unstimulating group as controls, each with triplicated repeated wells. After 5 days, cells were fixed with 4% paraformaldehyde and then applied TRAP-staining to identify osteoclasts by using the TRAP-staining kit. Osteoclasts number (OC No.) in each well was counted and the percentage of inhibition ratio was calculated as follows:1 OCinhibitoryratio%=100−OCNo.treated−OCNo.unstimulating/OCNo.untreated−OCNo.unstimulating×100%
The dosages and their correspondent osteoclastogenesis inhibitory activity curve and IC50 value were conducted by using Nonlinear regression (curve fit) analytic procedure in GraphPad Prism 8. Photographs of individual wells were taken using Leica microscope.

[2] = BMMs, M-CSF + 100 ng/mL sRANKL, 5 days, TRAP staining

## CCOC(=O)c1sc(NC(=O)C(=NNc2ccccc2C(=O)OC)C(C)=O)nc1C [S3-00]
RAW264.7 cells
  CC50: 57.2 µM
[1]; conc. 0.0023464 μM
  inhibition of osteoclastogenesis, dose-response (fig. S2a): 7.803 and 2.07 and 1.592
[1]; conc. 0.00774313 μM
  inhibition of osteoclastogenesis, dose-response (fig. S2a): 3.981 and 7.325 and 13.535
[1]; conc. 0.0255523 μM
  inhibition of osteoclastogenesis, dose-response (fig. S2a): -1.274 and 4.936 and 3.025
[1]; conc. 0.0843226 μM
  inhibition of osteoclastogenesis, dose-response (fig. S2a): 10.6688 and 9.713 and 2.07
[1]; conc. 0.278265 μM
  inhibition of osteoclastogenesis, dose-response (fig. S2a): 4.936 and 4.4586 and 8.758
[1]; conc. 0.918274 μM
  inhibition of osteoclastogenesis, dose-response (fig. S2a): 21.1783 and 12.5796 and 14.9681
[1]; conc. 3.0303 μM
  inhibition of osteoclastogenesis, dose-response (fig. S2a): 46.9745 and 43.6306 and 45.5414
[1]; conc. 10 μM
  inhibition of osteoclastogenesis, dose-response (fig. S2a): 57.4841 and 67.9936 and 66.5605
[1]; conc. 33 μM
  inhibition of osteoclastogenesis, dose-response (fig. S2a): 93.3121 and 95.2229 and 92.8344

## CCOC(=O)c1sc(NC(=O)C(=NNc2ccccc2O)C(C)=O)nc1C [S3-06]
RAW264.7 cells
  CC50: 202 µM
[1]; [2]
  IC50: 1.4 µM
[1]; conc. 0.0023464 μM
  inhibition of osteoclastogenesis, dose-response (fig. S2a): -2.117 and 4.235 and 7.166
[1]; conc. 0.00774313 μM
  inhibition of osteoclastogenesis, dose-response (fig. S2a): 2.28 and -2.606 and 3.746
[1]; conc. 0.0255523 μM
  inhibition of osteoclastogenesis, dose-response (fig. S2a): 1.792 and 3.746 and -0.1629
[1]; conc. 0.0843226 μM
  inhibition of osteoclastogenesis, dose-response (fig. S2a): 4.723 and 7.166 and -1.14
[1]; conc. 0.278265 μM
  inhibition of osteoclastogenesis, dose-response (fig. S2a): 27.1987 and 24.2671 and 26.2215
[1]; conc. 0.918274 μM
  inhibition of osteoclastogenesis, dose-response (fig. S2a): 39.4137 and 37.4593 and 42.3453
[1]; conc. 3.0303 μM
  inhibition of osteoclastogenesis, dose-response (fig. S2a): 68.7296 and 60.9121 and 64.3322
[1]; conc. 10 μM
  inhibition of osteoclastogenesis, dose-response (fig. S2a): 81.9218 (2×) and 82.899
[1]; conc. 33 μM
  inhibition of osteoclastogenesis, dose-response (fig. S2a): 100

## CCOC(=O)c1sc(NC(=O)C(=NNc2ccccc2CO)C(C)=O)nc1C [S3-07]
RAW264.7 cells
  CC50: 49.1 µM
[1]; [2]
  OC IC50 (anti-osteoclastogenesis activity): inactive; also recorded: lose osetoclastogenesis inhibitory activities
  IC50: 2.33 µM

## CC(=O)C(=NNc1ccccc1C(=O)O)C(=O)Nc1nc(C)cs1 [S3-08]
RAW264.7 cells
  CC50: > 100 µM
[1]; [2]
  IC50: 2.33 µM and 2.34 µM
[1]; conc. 0.0023464 μM
  inhibition of osteoclastogenesis, dose-response (fig. S2a): 1.304 and -3.21 and -2.307
[1]; conc. 0.00774313 μM
  inhibition of osteoclastogenesis, dose-response (fig. S2a): 3.711 and 2.508 and 1.304
[1]; conc. 0.0255523 μM
  inhibition of osteoclastogenesis, dose-response (fig. S2a): 3.109 and 3.41 and 5.517
[1]; conc. 0.0843226 μM
  inhibition of osteoclastogenesis, dose-response (fig. S2a): 6.118 and 6.419 and 8.225
[1]; conc. 0.278265 μM
  inhibition of osteoclastogenesis, dose-response (fig. S2a): 18.7563 and 19.0572 and 20.2608
[1]; conc. 0.918274 μM
  inhibition of osteoclastogenesis, dose-response (fig. S2a): 29.8897 and 31.0933 and 35.005
[1]; conc. 3.0303 μM
  inhibition of osteoclastogenesis, dose-response (fig. S2a): 50.9529 and 40.7222 and 44.6339
[1]; conc. 10 μM
  inhibition of osteoclastogenesis, dose-response (fig. S2a): 83.7512 and 85.2558 and 78.6359
[1]; conc. 33 μM
  inhibition of osteoclastogenesis, dose-response (fig. S2a): 100

## CCOC(=O)c1sc(NC(=O)C(=NNc2cc(C)ccc2C(=O)O)C(C)=O)nc1C [S3-10]
RAW264.7 cells
  CC50: 41.1 µM
[1]; conc. 0.0023464 μM
  inhibition of osteoclastogenesis, dose-response (fig. S2a): 3.829 and 3.173 and -0.4376
[1]; conc. 0.00774313 μM
  inhibition of osteoclastogenesis, dose-response (fig. S2a): 4.486 and 2.516 and 3.173
[1]; conc. 0.0255523 μM
  inhibition of osteoclastogenesis, dose-response (fig. S2a): 5.142 and 3.173 and 7.1116
[1]; conc. 0.0843226 μM
  inhibition of osteoclastogenesis, dose-response (fig. S2a): 9.409 and 8.096 and 12.3632
[1]; conc. 0.278265 μM
  inhibition of osteoclastogenesis, dose-response (fig. S2a): 13.6761 and 23.1947 and 19.256
[1]; conc. 0.918274 μM
  inhibition of osteoclastogenesis, dose-response (fig. S2a): 34.0263 and 27.4617 (2×)
[1]; conc. 3.0303 μM
  inhibition of osteoclastogenesis, dose-response (fig. S2a): 35.3392 and 33.3698 and 37.6368
[1]; conc. 10 μM
  inhibition of osteoclastogenesis, dose-response (fig. S2a): 87.1991 and 82.6039 and 90.1532
[1]; conc. 33 μM
  inhibition of osteoclastogenesis, dose-response (fig. S2a): 100

## CCOC(=O)c1sc(NC(=O)C(=NNc2c(C)cccc2C(=O)O)C(C)=O)nc1C [S3-11]
RAW264.7 cells
  CC50: 75.2 µM
[1]; conc. 0.0023464 μM
  inhibition of osteoclastogenesis, dose-response (fig. S2a): 6.678 and -7.003 and 1.303
[1]; conc. 0.00774313 μM
  inhibition of osteoclastogenesis, dose-response (fig. S2a): -5.049 and 1.792 and -0.6515
[1]; conc. 0.0255523 μM
  inhibition of osteoclastogenesis, dose-response (fig. S2a): -0.6515 and 3.257 and 0.3257
[1]; conc. 0.0843226 μM
  inhibition of osteoclastogenesis, dose-response (fig. S2a): 5.212 and -2.117 and 3.746
[1]; conc. 0.278265 μM
  inhibition of osteoclastogenesis, dose-response (fig. S2a): 16.4495 and 15.9609 and 19.3811
[1]; conc. 0.918274 μM
  inhibition of osteoclastogenesis, dose-response (fig. S2a): 28.1759 and 21.3355 and 30.1303
[1]; conc. 3.0303 μM
  inhibition of osteoclastogenesis, dose-response (fig. S2a): 50.1629 and 34.5277 and 49.6743
[1]; conc. 10 μM
  inhibition of osteoclastogenesis, dose-response (fig. S2a): 97.557 and 94.1368 and 98.0456
[1]; conc. 33 μM
  inhibition of osteoclastogenesis, dose-response (fig. S2a): 100
